The test system of series [1] is tic disorders. The series can be described thus: Test Case 1: a case with improved tic disorder. Format: in vivo, human. As to conditions: for effect of earlier drug therapy on tic symptoms (history): patient history before theanine. From the text:
<Test Case 1> A Case with Improved Tic Disorder
Patient: (Sixth grade elementary school student);
Chief complaint: shaking hands and head
History: Since being elected as temporary class representative of the fourth grade class of elementary school, the patient had blinking eyes and subsequently shook their face and shoulders; thus, they visited a nearby hospital and received diazepam. […] In the following year, around the time of moving to Osaka, the patient suffered a relapse of symptoms of shaking their face and shoulders again and thus visited the pediatric department of O hospital and received haloperidol.

For a further series, the system named is Tourette's disorder. Briefly: Test Case 2: a case with improved Tourette's disorder. Format: in vivo, human. An excerpt:
<Test Case 2> A Case with Improved Tourette's Disorder
Patient: child; body weight: 43 kg
The tics were milder when they were in school or with others, and were more frequently observed in the presence of only their family. (in the third semester of the sixth grade), they visited our clinic worrying about bullying at their junior high school. […] In addition, the patient continuously moved their hands and legs and tended to be restlessly absent-mindedly hyperactive.
Psychosocial case history: The patient was always crying due to inherent sensitivity; thus, their parent felt anxious about child-rearing. They were severely afraid of strangers and timid, and often cried for fear. […] They often cut into others' conversation and was too talkative. Their parent can get along with their younger sibling casually, but is feeling awkwardness and pain with the patient due to the lack of closeness. Their parent is not nagging so much, and seems to accept the patient. Clinical course: The patient was diagnosed as having Tourette's disorder, and the disease was explained to their parents. To alleviate the symptoms, haloperidol (trade name: Serenase (trademark); Dainippon Pharmaceutical Co. Ltd.) was used.
The administration of theanine is scheduled to be continued until the end of puberty. The patient has joined their junior high school track club, and has tics, although unnoticeable. The patient has become a bit disobedient and often falls silent, but is highly motivated with study.

Another series relates to mice. It is filed as in vivo. As to conditions: oral administration of 5 g/kg.
In series [2] the test system is tic disorders. Briefly: Test Case 3: a case with improved tic disorder. Format: in vivo, human. As to conditions: patient; 0.8 g theanyl-theanine daily for 30 days. An excerpt:
<Test Case 3> A Case with Improved Tic Disorder
Patient: child; height 121 cm; body weight 20 kg
Chief complaint: repetitive guttural
They were diagnosed as having tics.
The parent disciplined the child by scolding. They were pressed with child-rearing and housework and had little free time; thus, they were always nagging due to frustration. In July 1990, the patient developed involuntary movements of shaking their shoulders up and down, and in addition, repetitive guttural. In Sep. 6, 1990, the patient first visited the clinic. The affected child was thin with abdominal palpitation and spasms of the musculus rectus abdominis. Since October, the patient received 8 tablets combined with theanyl-theanine in example 5 (0.8 g theanyl-theanine) daily for 30 days.

Residues, ends and D or L forms follow the SMILES beside them.

Consider `CN1C(=O)CN=C(c2ccccc2)c2cc(Cl)ccc21` [diazepam], for which the “effect of earlier drug therapy on tic symptoms (history)” value in the series with tic disorders [1] (patient) was “no effect”.
In the case of `O=C(CCCN1CCC(O)(c2ccc(Cl)cc2)CC1)c1ccc(F)cc1` [haloperidol], the “adverse effects of earlier drug therapy (history)” value with tic disorders [1] (patient, increased dosage, patient history) is on record as “speech defect”. The “effect of earlier drug therapy on tic symptoms (history)” value in the series on tic disorders [1] (patient) is on record as “insufficient effect”. In addition, in the series with Tourette's disorder (patient, 0.25 mg to 0.5 mg), the “adverse effects of earlier drug therapy” value is reported as “drowsiness was caused as an adverse effect”. Besides, the “symptoms of Tourette's disorder under earlier drug therapy” value in the series with Tourette's disorder (patient, dosage gradually increased from 0.25 mg to 0.5 mg) was “alleviated the symptoms such as tics and restlessness”.
As to `CCNC(=O)CC[C@H](N)C(=O)O` [theanine, L-theanine], the adverse effects result in the series on tic disorders [1] (in vivo) and in the series with Tourette's disorder (in vivo) was “no adverse effects” throughout. Further, in the series on mice, the “death or abnormality in general conditions and body weight” value was “neither death nor abnormality in general conditions and body weight was observed”.
As for `CCNC(=O)CC[C@H](NC(=O)[C@@H](N)CCC(=O)NCC)C(=O)O` [theanyl-theanine] (H-Glu(NHEt)-Glu(NHEt)-OH), the adverse effects entry in the series with tic disorders [2] is given as “no adverse effects”.

Source of the values: US20060217321A1, “Compositions to improve tic disorders” (priority 2005, published 2006).
